In patent publication US20240059703A1 (AMGEN INC., priority 2021, published 2024):

What was measured:
KRAS G12C = KRAS G12C (Homo sapiens (Human), UniProt P01116, C118A/G12C); assay: 2 h coupled exchange assay; format: biochemical; settings: Avg 2 h Coupled exchange IC50, 2 h compound pre-incubation, SOS-mediated nucleotide exchange
Procedure: The term “2 h coupled exchange assay” or “20 h coupled exchange assay” as used herein refers to the assay described in the Section entitled “BIOLOGICAL EVALUATION.”

[1] = test system: MIA PaCa-2 (human pancreatic carcinoma) cells; assay: Cell Viability Assay (CellTiter-Glo), MIA PaCa-2; format: cell-based
Procedure: (§1) Serially-diluted compound or DMSO was added to the cells, and plates were incubated at 37° C., 5% CO2 for 72 h. Cell viability was measured using a CellTiter-Glo® Luminescent Cell Viability Assay kit (Promega) according to the manufacturer's protocol. The luminescence signal of treated samples was normalized to DMSO control, and data were analyzed using a 4-parameter logistic model to calculate IC50 values.

[2] = test system: A549 (human lung carcinoma) cells; assay: Cell Viability Assay (CellTiter-Glo), A549; format: cell-based
Procedure: as §1, with “MIA PaCa-2 (human pancreatic carcinoma; ATCC CRL-1420) or A549 (human lung carcinoma; ATCC CCL-185) cells were cultured in RPMI 1640 medium containing 10% fetal bovine serum and 1× penicillin/streptomycin/L-glutamine. Cells were seeded in 384-well plates at a density of 1.67E+04 cells/mL and incubated at 37° C., 5% CO2, overnight. Serially-diluted” for “Serially-diluted”

Sequence of KRAS G12C (P01116 other isoform, or with tags, fused parts or gaps G12C/C118A): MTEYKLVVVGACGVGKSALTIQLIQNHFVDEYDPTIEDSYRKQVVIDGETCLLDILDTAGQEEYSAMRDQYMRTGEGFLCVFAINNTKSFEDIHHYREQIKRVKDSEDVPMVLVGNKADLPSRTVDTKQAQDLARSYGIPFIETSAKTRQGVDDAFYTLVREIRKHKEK

SMILES | IC50 (KRAS G12C) | IC50 ([1]; Homo sapiens, MIA PaCa-2, 72 h) | IC50 ([2]; Homo sapiens, A549, 72 h) | IC50 ([1]; 72 h) | IC50 ([2]; 72 h)
C=CC(=O)N1CC2(CCN(c3nc4c(c(-c5cc(O)ccc5C)c3Cl)COC(C)(C)C4)C2)C1 (single isomer, unassigned) [Example 2-81, (P)-1-(6-(3-chloro-4-(5-hydroxy-2-methylphenyl)-7,7-dimethyl-7,8-dihydro-5H-pyrano[4,3-b]pyridin-2-yl)-2,6-diazaspiro[3,4]octan-2-yl)-2-propen-1-one] | 0.053 µM | 0.058 µM | > 5 µM |  | 
C=CC(=O)N1CC2(CCN(c3cc4c(c(-c5c(C)ccc6[nH]ncc56)c3C#N)COCC4)C2)C1 (single isomer, unassigned) [Example 2-100, (P)-8-(5-methyl-1H-indazol-4-yl)-6-(2-(2-propenoyl)-2,6-diazaspiro[3.4]octan-6-yl)-3,4-dihydro-1H-2-benzopyran-7-carbonitrile] | 0.033 µM | 0.025 µM | > 5 µM |  | 
C=CC(=O)N1CC2(CCN(c3nc(-c4ccccc4F)c4c(n3)N([C@H](CC(=O)NC)CC(C)C)CC4)C2)C1 (single isomer, unassigned) [Example 9] | 0.691 µM | 1.69 µM | > 5 µM |  | 
C=CC(=O)N1CC2(CCN(c3nc(-c4ccccc4F)c4c(n3)N([C@H](CC(=O)NC)CC(C)C)CCC4)C2)C1 (single isomer, unassigned) [Example 10] | 1.68 µM | 3.24 µM | > 5 µM |  | 
C=CC(=O)N1CC2(CCN(c3nc(-c4ccccc4F)c4ccn([C@H](CC(=O)NC)CC(C)C)c4n3)C2)C1 (single isomer, unassigned) [Example 11] | 1.94 µM | 1.16 µM | 12.6 µM |  | 
C=CC(=O)N1CC2(CCN(c3nc4c(c(-c5cc(O)cc6nccnc56)c3C#N)C[C@H]3C[C@@H]4C3(C)C)C2)C1 (single isomer, unassigned) [Example 12-38] | 0.137 µM | > 5 µM | > 5 µM |  | 
C=CC(=O)N1CC2(CCN(c3nc4c(c(-c5c(C)ccc6cnn(C)c56)c3C#N)COC(C)(C)C4)C2)C1 (single isomer, unassigned) [Example 13-60, (P)-4-(1,6-dimethyl-1H-indazol-7-yl)-7,7-dimethyl-2-(2-(2-propenoyl)-2,6-diazaspiro[3.4]octan-6-yl)-7,8-dihydro-5H-pyrano[4,3-b]pyridine-3-carbonitrile] | 0.063 µM | 0.146 µM | > 5 µM |  | 
C=CC(=O)N1CC2(CCN(c3nc4c(c(-c5cc(O)cc6ccccc56)c3C#N)CC(C)(C)C4)C2)C1 (single isomer, unassigned) [Example 13-69, (P)-4-(3-hydroxy-1-naphthalenyl)-6,6-dimethyl-2-(2-(2-propenoyl)-2,6-diazaspiro[3.4]octan-6-yl)-6,7-dihydro-5H-cyclopenta[b]pyridine-3-carbonitrile] | 0.027 µM | 0.217 µM | 3.23 µM |  | 
C=CC(=O)N1CC2(CCN(c3nc4c(c(-c5cc(O)c(F)c6ccccc56)c3C#N)CC[C@@H]3C[C@H]43)C2)C1 (single isomer, unassigned) [Example 13-74] | 0.076 µM |  | > 5 µM | > 5 µM | 
C=CC(=O)N1CC2(CCN(c3nc4c(c(-c5cc(O)c(F)c6ccccc56)c3C#N)CC[C@@H]3C[C@H]43)C2)C1 (single isomer, unassigned) [Example 13-76] | 0.04 µM |  |  | 1.19 µM | 3.26 µM
C=CC(=O)N1CC2(CCN(c3nc4c(c(-c5cc(O)c(F)c6ccccc56)c3C#N)COC(C)(C)C4)C2)C1 (single isomer, unassigned) [Example 13-78, (P)-4-(4-fluoro-3-hydroxy-1-naphthalenyl)-7,7-dimethyl-2-(2-(2-propenoyl)-2,6-diazaspiro[3.4]octan-6-yl)-7,8-dihydro-5H-pyrano[4,3-b]pyridine-3-carbonitrile] | 0.076 µM | 0.842 µM | > 5 µM |  | 
C=CC(=O)N1CC2(CCN(c3nc4c(c(-c5c(C)ccc6cnn(C)c56)c3C#N)C[C@H]3C[C@@H]4C3(C)C)C2)C1 (single isomer, unassigned) [Example 13-106] | 0.078 µM | 0.831 µM | > 5 µM |  | 
C=CC(=O)N1CC2(CCN(c3nc4c(c(-c5c(C)ccc6cnn(C)c56)c3C#N)C[C@H]3C[C@@H]4C3)C2)C1 (single isomer, unassigned) [Example 13-118] | 0.072 µM | 0.279 µM | > 5 µM |  | 
C=CC(=O)N1CC2(CCN(c3nc4c(c(-c5c(C)ccc6cnn(C)c56)c3C#N)CO[C@@H](C3CC3)C4)C2)C1 (single isomer, unassigned) [Example 13-122] | 0.299 µM | 1.08 µM | > 5 µM |  | 
C=CC(=O)N1CC2(CCN(c3nc4c(c(-c5cc(O)ccc5C)c3C#N)C[C@H]3C[C@@H]4C3)C2)C1 (single isomer, unassigned) [Example 13-126] | 0.029 µM | > 5 µM | > 5 µM |  | 
C=CC(=O)N1CC2(CCN(c3nc4c(c(-c5cc(O)ccc5C)c3C#N)COC(C)(C)C4)C2)C1 (single isomer, unassigned) [Example 13-128, 4-(5-hydroxy-2-methylphenyl)-7,7-dimethyl-2-(2-(2-propenoyl)-2,6-diazaspiro[3.4]octan-6-yl)-7,8-dihydro-5H-pyrano[4,3-b]pyridine-3-carbonitrile] | 0.091 µM | > 5 µM | > 5 µM |  | 
C=CC(=O)N1CC2(CCN(c3nc4c(c(-c5c(C)ccc6cnn(C)c56)c3C#N)[C@H]3C[C@@H](C4)C3)C2)C1 (single isomer, unassigned) [Example 13-133] | 0.064 µM | 0.2 µM | > 5 µM |  | 

Compounds with a lower IC50 (KRAS G12C), results first:

IC50 (KRAS G12C) | IC50 ([1]; Homo sapiens, MIA PaCa-2, 72 h) | IC50 ([2]; Homo sapiens, A549, 72 h) | IC50 ([1]; 72 h) | IC50 ([2]; 72 h) | SMILES
0.026 µM | 0.082 µM | > 5 µM |  |  | C=CC(=O)N1CC2(CCN(c3nc4c(c(-c5cc(O)cc(Cl)c5C)c3C)COC(C)(C)C4)C2)C1 (single isomer, unassigned) [Example 12-43, (M)-1-(6-(4-(3-chloro-5-hydroxy-2-methylphenyl)-3,7,7-trimethyl-7,8-dihydro-5H-pyrano[4,3-b]pyridin-2-yl)-2,6-diazaspiro[3.4]octan-2-yl)prop-2-en-1-one]
0.026 µM | 0.18 µM | > 5 µM |  |  | C=CC(=O)N1CC2(CCN(c3nc4c(c(-c5c(C)ccc6cnn(C)c56)c3C#N)CC(C)(C)C4)C2)C1 (single isomer, unassigned) [Example 13-18, (P)-4-(1,6-dimethyl-1H-indazol-7-yl)-6,6-dimethyl-2-(2-(2-propenoyl)-2,6-diazaspiro[3.4]octan-6-yl)-6,7-dihydro-5H-cyclopenta[b]pyridine-3-carbonitrile]
0.023 µM | 0.003 µM | > 5 µM |  |  | C=CC(=O)N1CC2(CCN(c3nc4c(c(-c5c(C)c(Cl)cc6[nH]ncc56)c3Cl)COC(C)(C)C4)C2)C1 (single isomer, unassigned) [Example 2-109, (P)-1-(6-(3-chloro-4-(6-chloro-5-methyl-1H-indazol-4-yl)-7,7-dimethyl-7,8-dihydro-5H-pyrano[4,3-b]pyridin-2-yl)-2,6-diazaspiro[3.4]octan-2-yl)-2-propen-1-one]
0.021 µM | 0.202 µM | > 5 µM |  |  | C=CC(=O)N1CC2(CCN(c3nc4c(c(-c5cc(O)ccc5Cl)c3C#N)C[C@H]3C[C@@H]4C3(C)C)C2)C1 (single isomer, unassigned) [Example 2-74]
0.016 µM | 0.143 µM | > 5 µM |  |  | C=CC(=O)N1CC2(CCN(c3nc4c(c(-c5cc(O)cc6ccccc56)c3C#N)COC(C)(C)C4)C2)C1 (single isomer, unassigned) [Example 13-43, (P)-4-(3-hydroxy-1-naphthalenyl)-7,7-dimethyl-2-(2-(2-propenoyl)-2,6-diazaspiro[3.4]octan-6-yl)-7,8-dihydro-5H-pyrano[4,3-b]pyridine-3-carbonitrile]
0.015 µM | 0.221 µM | > 5 µM |  |  | C=CC(=O)N1CC2(CCN(c3nc4c(c(-c5cc(O)ccc5C)c3C#N)C[C@H]3C[C@@H]4C3(C)C)C2)C1 (single isomer, unassigned) [Example 2-69]
0.013 µM | 0.009 µM | > 5 µM |  |  | C=CC(=O)N1CC2(CCN(c3nc4c(c(-c5c(C)c(C)cc6cnn(C)c56)c3C#N)COC(C)(C)C4)C2)C1 (single isomer, unassigned) [Example 13-92, (P)-7,7-dimethyl-2-(2-(2-propenoyl)-2,6-diazaspiro[3.4]octan-6-yl)-4-(1,5,6-trimethyl-1H-indazol-7-yl)-7,8-dihydro-5H-pyrano[4,3-b]pyridine-3-carbonitrile]
0.013 µM | 0.021 µM | > 5 µM |  |  | C=CC(=O)N1CC2(CCN(c3nc4c(c(-c5cc(O)cc6ccccc56)c3C#N)C[C@H]3C[C@@H]4C3(C)C)C2)C1 (single isomer, unassigned) [Example 13-129]
0.012 µM | 0.009 µM | > 5 µM |  |  | C=CC(=O)N1CC2(CCN(c3nc4c(c(-c5c(C)ccc6[nH]ncc56)c3C#N)C[C@H]3C[C@@H]4C3(C)C)C2)C1 (single isomer, unassigned) [Example 13-115]
